According to patent US6248309A, “Gums containing antimicrobial agents” (priority 1999, dated 2001):
Several values for one entry are separate records, joined by “and”; a condition that tells them apart may be missing. Equal values may be shown once. Read-outs that look alike come from different tables or passages of the source.

Columns and labels:
[1] = system: Actinomyces viscosus (AV); assay: MIC of agents alone, in pairs and in three-agent combination (Example 2); assay type: cell-based, Actinomyces viscosus ATCC 19246; conditions: AV, agent used alone
From the text: (§1) In addition, the example describes how the MIC of antimicrobial agents in the combinations are reduced compared to the MIC of those antimicrobial agents alone and the MIC of those agents in various pairings. Numerous combinations of the antimicrobial agents described herein were combined to form combinations comprising three antimicrobial agents or triplets. Each of the formed triplets included either cedarwood oil or berberine hydrochloride.
(§2) The protocol used was a variation of the procedure described above in Example 1. The assay was carried out in the two-dimensional array of a 96-well plate. In order to evaluate three agents, two of the agents were paired against the third agent. For example, varying concentrations of antimicrobial agent A plus antimicrobial agent B versus varying concentrations of antimicrobial agent C were evaluated on one 96-well plate. The procedure was repeated with the other two possible pairings, i.e., A+C with B, and B+C with A. Accordingly, each triplet required three assays in order to assess each of the three possible pairings.
(§3) The bacterial innoculum was prepared as described in Example 1.
(§4) A sterile polystyrene 96-well plate was used to dilute the antimicrobial agents A, B and C. Using aseptic technique, 100 microliters of distilled water was placed in each test well. The dilution scheme was separated into two parts. First, the dilution of the combined agents A and B and then second, the dilution of agent C. A dilution of agents A and B was accomplished by placing 50 microliters of stock solution for agent A in the first well of each column. Next, 50 microliters of stock solution for agent B was added to each of the first wells of each column. Accordingly, the first well of each column included 50 microliters of stock solution for agent A and 50 microliters of stock solution for agent B. 100 microliters from the first row in each column was then transferred to the next well in the column and so on down the column. Each transfer was a one-half dilution of the preceding concentration.
(§5) The dilution of antimicrobial agent C was accomplished by adding 100 microliters of agent C stock solution to the first well of each row. 100 microliters from the first well in each row was then transferred to the next well and so on across the row of test wells. Each transfer was a one-half dilution of the preceding concentration. FIG. 1 is a schematic illustration of the concentrations of antimicrobial agents A, B and C derived from the dilution scheme described above. […] The concentration of agent C decreases across a row from left to right. […]
(§6) The 96-well plate was then incubated under conditions that varied by microorganism. […] The plate was then read for microbial growth with a spectrophotometer by optical density. […]

[2] = system: Streptococcus sanguis (SS); assay: as above; assay type: cell-based, Streptococcus sanguis ATCC 49295; conditions: SS; agent used alone
From the text: as §1, §2, §3
A sterile polystyrene 96-well plate was used to dilute the antimicrobial agents A, B and C. Using aseptic technique, 100 microliters of distilled water was placed in each test well. The dilution scheme was separated into two parts. First, the dilution of the combined agents A and B and then second, the dilution of agent C. A dilution of agents A and B was accomplished by placing 50 microliters of stock solution for agent A in the first well of each column. Next, 50 microliters of stock solution for agent B was added to each of the first wells of each column. […]
as §6

[3] = system: Streptococcus mutans (SM); assay: as above; assay type: cell-based, Streptococcus mutans ATCC 25175; conditions: SM, agent used alone
From the text: as §1, §2, §3, §4, §5, §6

Porphyromonas gingivalis = assay: MIC of each agent used in Example 5; assay type: cell-based; conditions: starting dilution 0.1 percent in methanol, MIC defined in micrograms per milliliter, read-out: MIC relative to Porphyromonas gingivalis used in Example 5
Protocol: The MIC Range was determined against a standard panel of five organisms that included Actinomyces viscosus, Fusobacterium nucleatum, Porphyromonas gingivalis, Streptococcus mutans, and Stretococcus sanguis. The starting dilution was 0.1 percent in methanol. The MIC used in this Example 5 was the MIC for each agent relative to Porphyromonas gingivalis.

clinical = conditions: human, in vivo
Protocol: (§7) Ten volunteers chewed 2.7 grams samples of each gum formulation and provided saliva samples at intervals and the gum bolus at the end of the 25 minute chewing period. High pressure liquid chromatography and gas chromatography were used to analyze the gum bolus and saliva non-volatile and volatile components, respectively.
(§8) Saliva samples were collected from each of the individuals prior to chewing 2.7 grams of gum, and at 1.0, 2.5, 5.0, 10.0, and 25.0 minutes while chewing the gum. The saliva samples were refrigerated until analysis. The gum bolus that remained after 25 minutes was saved and extracted immediately or stored refrigerated until extraction for analysis.
(§9) Samples were Vortex-mixed in Multi-tube vortex mixer for one minute and then centrifuged at top speed in clinical centrifuge for two minutes. Supernatants were carefully transferred to 1 milliliter glass shell vials and capped. Analysis was carried out either by isocratic elution for glabridin-only samples, or gradient elution for the samples containing the glycyrrhizic and 18β-glycyrrhetinic acids using high pressure liquid chromatography. Glabridin concentrations were converted to GLY concentrations by taking the weight percent glabridin in GLY to be 2.74 percent.
(§10) The calibration curve was prepared using spiked blank saliva.
(§11) For saliva, the essential oils of menthol, cedarwood oil, geraniol and Rosmarinus officianalis were determined by capillary gas chromatography. The split ratio was 25:1. The injection volume was 2 μL. Four hundred μL of saliva was extracted from the 1 milliliter of ethyl acetate containing an internal standard (hexadecane) in 1.5 milliliter Eppendorf tubes. After centrifugation, the organic layer was injected directly into the Hewlett-Packard 6890 gas chromatograph. […] For this reason, only the samples from 0 to 10 minutes were analyzed. A cleanup gradient was run from 190 to 300° C. every fifth sample to remove less volatile interferences from the column.

[4] = system: Campylobacter rectus (CR); assay: MIC of agents alone, in pairs and in three-agent combination (Example 2); assay type: cell-based; conditions: CR, agent used alone, read-out: MIC, individual agent alone
From the text: as §1, §2, §3
A sterile polystyrene 96-well plate was used to dilute the antimicrobial agents A, B and C. […]
as §6

[5] = assay type: in vivo, human volunteers; conditions: in vivo
Protocol: The saliva samples were refrigerated until analysis.
To either 2.7 grams unchewed gum sample or the remaining bolus of chewed gum, was added 3.0 millileters of internal standard (Hesperetin) in methanol, 6.0 milliliters hexane and 3.0 milliliters distilled water. Samples were homogenized using a Polytron Homogenizer model PT10/35 from Brinkmann Instruments, fitted with a PTA10TS generator for at least 30 seconds on ice, or until no lumps of non-dispersed gum were visible in the sample. Samples were then centrifuged in a Dynac Tabletop Centrifuge at top speed for ten minutes. The lower, amber, aqueous/methanol layer were then filtered through 25 millimeter, 0.45 micrometer nylon Acrodisc syringe filters from Gelman into 4 milliliter autosampler vials and tightly capped with polytetrafluorothylene lined septum in open-top screw caps. These samples were then analyzed using high pressure liquid chromatography for glabridin and/or glycyrrhizic and 18β-glycyrrhetinic acid, and were quantitated against a 4-point linear curve prepared by spiking approximately 2.7 grams unchewed samples of Wrigley Extra Sugarfree Peppermint gum with known levels of purified glabridin, glycyrrhizic acid monoammonium salt and 18β-glycyrrhetinicacid.
For the analysis of the gum bolus, both chewed and unchewed, a Polytron Homogenizer, described above was used. The gum sample was placed in a heavy wall glass tube. Internal standard ([…]) ethyl acetate ([…]) and water ([…]) were added. The sample was homogenized for approximately 30 seconds, or until no particles could be seen. The tubes were then centrifuged for 10 minutes on a clinical centrifuge at maximum speed. The supernatant was injected directly onto the gas chromatograph. The oven program was modified to allow resolution of ROF1 components from those of the peppermint flavoring. The gas chromatograph was calibrated using a three point standard curve to quantify the following components: menthol (flavor); geraniol (oil geraniol); cedrene, thujopsene (RC1); pinene, cineol, camphor, bornyl acetate (ROF1). The initial temperature was decreased from 140° C. to 100° C. The temperature gradient was changed from 10° C./minute to 4° C./minute. The split ratio was 50:1, and injection volume was 1 μL as per the method. A cleanup gradient was run every fifth sample as described previously.
A recovery study was performed in triplicate using blank Wrigley's Peppermint Gum (chewed and unchewed) spiked with stand and solution. Recovery was calculated relative to a direct standard consisting of spike solution without sample matrix.

[6] = system: Porphyromonas gingivalis (PG); assay: MIC of agents alone, in pairs and in three-agent combination (Example 2); assay type: cell-based, Porphyromonas gingivalis ATCC 33277; conditions: PG, agent used alone
From the text: as §1, §2, §3, §4, §5, §6

[7] = system: Fusobacterium nucleatum (FN); assay: as above; assay type: cell-based, Fusobacterium nucleatum ATCC 10933; conditions: FN, agent used alone
From the text: as §1, §2, §3, §4, §5, §6

[8] = for Rate of release from gum: in words
Protocol: as §7, §8, §9, §10, §11

- MIC, individual agent alone [1]: 62.5 µg/mL and 125 µg/mL
- MIC ([1]; Actinomyces viscosus, read-out: MIC, individual agent alone): 125 µg/mL
- MIC, individual agent alone [2]: 125 µg/mL and 62.5 µg/mL and 250 µg/mL
- MIC, individual agent alone [3]: 125 µg/mL
- MIC ([3]; Streptococcus mutans, read-out: MIC, individual agent alone): 125 µg/mL
- MIC (Porphyromonas gingivalis): 7.8 µg/mL
- concentration at 1 min (clinical): 6000 ng/mL
- concentration at 2.5 min (clinical): 6000 ng/mL
- concentration at 5 min (clinical): 7000 ng/mL
- concentration at 10 min (clinical): 5000 ng/mL
- MIC [4]: 250 µg/mL
- Release from Chewed Gum Bolus after 25 min [5]: 34%
- MIC, individual agent alone [6]: 62.5 µg/mL
- MIC ([6]; Porphyromonas gingivalis, read-out: MIC, individual agent alone): 62.5 µg/mL
- MIC, individual agent alone [7]: 62.5 µg/mL and 125 µg/mL
- MIC ([7]; Fusobacterium nucleatum, read-out: MIC, individual agent alone): 62.5 µg/mL
- Above MIC in Saliva (Y/N) ([8]; concentration in saliva at any time above MIC relative to Porphyromonas gingivalis): No
- Time maintaining a presence in the oral cavity ([8]; human, in vivo): about 25 minutes
SMILES: CC(C)=CCC/C(C)=C/CO [GRA1, trans-3,7-dimethyl-2,6-octadien-1-ol]
- Rate of release from gum ([8]; listed as GRA): released more slowly and over a longer period of time
- Rate of release from gum ([8]; listed as geraniol): released from a gum base less quickly and over a longer period of time
